# Results reported in patent publication US20260297070A1, “CYCLIC [COMPOUND LEFT OUT] WRN INHIBITORS” (Nimbus Wadjet, Inc., priority 2023, published 2026).
# Molecular target: T1, human Werner helicase (WRN-BV08, Uniprot Q14191, amino acids 517-1235 with L1074F point mutation) (Homo sapiens, UniProt Q14191, L1074F)
# T1 construct: Uniprot Q14191, amino acids 517-1235 with L1074F point mutation; TEV-cleavable 8×His (C, cleaved yes); made in house; host or cells: Sf9 insect cells (baculovirus)
# Assay: WRN (BV08) ADP-Glo Assay
# Format: biochemical
# Conditions: 0.15 nM WRN, 5 μM ATP, 0.1 nM DNA duplex, 15 min preincubation, 60 min at 25° C., pH 7.5, 1% DMSO; read-out: ADP-Glo_hWRN_IC50
# Procedure, shortened: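 Helicase ATPase activity is measured at 25 °C over 60 min using 0.15 nM enzyme, 5 μM ATP and 0.1 nM DNA duplex, final DMSO 1%. ADP production is detected by luminescence, with IC50 derived by curve fitting.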
# T1 sequence (Q14191 with tags, fused parts or gaps L1074F limits assumed): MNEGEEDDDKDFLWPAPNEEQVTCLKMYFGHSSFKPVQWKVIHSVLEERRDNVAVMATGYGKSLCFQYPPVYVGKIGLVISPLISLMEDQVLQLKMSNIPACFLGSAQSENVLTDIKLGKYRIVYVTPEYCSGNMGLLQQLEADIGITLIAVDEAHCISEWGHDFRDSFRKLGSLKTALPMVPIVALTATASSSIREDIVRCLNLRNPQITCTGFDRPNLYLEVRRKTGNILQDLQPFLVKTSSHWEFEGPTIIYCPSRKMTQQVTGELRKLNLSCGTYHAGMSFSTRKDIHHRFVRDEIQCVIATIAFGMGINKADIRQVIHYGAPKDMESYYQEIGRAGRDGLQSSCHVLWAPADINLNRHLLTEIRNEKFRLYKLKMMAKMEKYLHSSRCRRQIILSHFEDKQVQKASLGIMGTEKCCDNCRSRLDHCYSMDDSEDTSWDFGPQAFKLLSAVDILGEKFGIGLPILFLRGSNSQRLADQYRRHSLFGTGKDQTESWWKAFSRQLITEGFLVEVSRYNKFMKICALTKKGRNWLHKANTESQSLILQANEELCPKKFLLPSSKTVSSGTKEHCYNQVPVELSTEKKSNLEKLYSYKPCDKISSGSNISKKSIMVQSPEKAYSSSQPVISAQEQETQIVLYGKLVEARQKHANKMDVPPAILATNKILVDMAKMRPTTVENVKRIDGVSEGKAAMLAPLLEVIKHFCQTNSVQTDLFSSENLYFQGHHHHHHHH
row,Compound,IC50
1,"CC(C)(O)c1cc(CN(C(=O)Cn2cc3cc(C(F)(F)F)ccc3n2)C2C=CS(=O)(=O)C2)ccn1 (single isomer, unassigned) [I-676]",< 500 nM
2,"CC(C)(O)c1cc(CN(C(=O)C(OC2CC2)c2ccc(-c3ccc(F)c(F)c3)cc2F)[C@@H]2C=CS(=O)(=O)C2)ccn1 (single isomer, unassigned) [I-681]",< 500 nM
3,"CC(C)(O)c1cc(CN(C(=O)C(c2ccc(-c3ccc(F)c(F)c3)cc2F)n2cccn2)[C@@H]2C=CS(=O)(=O)C2)ccn1 (single isomer, unassigned) [I-682]",< 500 nM
4,"COc1cc(CN(C(=O)C(c2ccc(-c3ccc(F)c(F)c3)cc2F)n2cc(OC(F)F)cn2)[C@@H]2C=CS(=O)(=O)C2)ccn1 (single isomer, unassigned) [I-685, (2R*)-2-[4-(difluoromethoxy)-1H-pyrazol-1-yl]-N-[(3R)-1,1-dioxo-2,3-dihydro-1lambda6-thiophen-3-yl]-N-[(2-methoxypyridin-4-yl)methyl]-2-{3,3′,4′-trifluoro-[1,1′-biphenyl]-4-yl}acetamide]",< 500 nM
5,"COc1cc(CN(C(=O)C(OCC#N)c2ccc(-c3ccc(F)c(F)c3)cc2F)[C@@H]2C=CS(=O)(=O)C2)ccn1 (single isomer, unassigned) [I-686, (2R*)-2-(cyanomethoxy)-N-[(3R)-1,1-dioxo-2,3-dihydro-1lambda6-thiophen-3-yl]-N-[(2-methoxypyridin-4-yl)methyl]-2-{3,3′,4′-trifluoro-[1,1′-biphenyl]-4-yl}acetamide]",500 to 5000 nM
6,"CNC(=O)C(C(=O)N(Cc1ccnc(C(C)(C)O)c1)C1C=CS(=O)(=O)C1)c1ccc(-c2ccc(F)c(F)c2)cc1F (single isomer, unassigned) [I-689, (2R**)-N′-[(3R*)-1,1-dioxo-2,3-dihydro-1lambda6-thiophen-3-yl]-N′-{[2-(2-hydroxypropan-2-yl)pyridin-4-yl]methyl}-N-methyl-2-{3,3′,4′-trifluoro-[1,1′-biphenyl]-4-yl}propanediamide]",< 500 nM
7,"CNC(=O)C(C(=O)N(Cc1ccnc(C(C)(C)O)c1)C1C=CS(=O)(=O)C1)c1ccc(-c2ccc(F)c(F)c2)cc1F (single isomer, unassigned) [I-690, (2R**)-N′-[(3R*)-1,1-dioxo-2,3-dihydro-1lambda6-thiophen-3-yl]-N′-{[2-(2-hydroxypropan-2-yl)pyridin-4-yl]methyl}-N-methyl-2-{3,3′,4′-trifluoro-[1,1′-biphenyl]-4-yl}propanediamide]",500 to 5000 nM
8,"COc1cc(CN(C(=O)C(OCC#N)c2ccc(-c3ccc(F)c(F)c3)cc2F)[C@@H]2C=CS(=O)(=O)C2)ccn1 (single isomer, unassigned) [I-692, (2R*)-2-(cyanomethoxy)-N-[(3R)-1,1-dioxo-2,3-dihydro-1lambda6-thiophen-3-yl]-N-[(2-methoxypyridin-4-yl)methyl]-2-{3,3′,4′-trifluoro-[1,1′-biphenyl]-4-y]}acetamide]",10000 to 50000 nM
9,"CNC(=O)C(C(=O)N(Cc1ccnc(OC)c1)[C@@H]1C=CS(=O)(=O)C1)c1ccc(-c2ccc(F)c(F)c2)cc1F (single isomer, unassigned) [I-693, (2R*)-N′-[(3R)-1,1-dioxo-2,3-dihydro-1lambda6-thiophen-3-yl]-N′-[(2-methoxypyridin-4-yl)methyl]-N-methyl-2-{3,3′,4′-trifluoro-[1,1′-biphenyl]-4-yl}propanediamide]",< 500 nM
10,"CNC(=O)C(C(=O)N(Cc1ccnc(OC)c1)[C@@H]1C=CS(=O)(=O)C1)c1ccc(-c2ccc(F)c(F)c2)cc1F (single isomer, unassigned) [I-694, (2R*)-N′-[(3R)-1,1-dioxo-2,3-dihydro-1lambda6-thiophen-3-yl]-N′-[(2-methoxypyridin-4-yl)methyl]-N-methyl-2-{3,3′,4′-trifluoro-[1,1′-biphenyl]-4-yl}propanediamide]",< 500 nM
